25 molecules from patent publication US8637499B2, “Benzoxazepines as inhibitors of PI3K/mTOR and methods of their use and manufacture” (Exelixis, Inc., priority 2009, dated 2014) can be followed below.

Each structure is given as a SMILES string.

The target of one assay is mTORC1 (mTOR/GbL/Raptor) (Homo sapiens, UniProt P42345). The experiment in a line: mTOR/GbL/Raptor (mTORC1) ELISA Assay. Type of assay: biochemical. The settings on record: 0.2 nM mTORC1, 10 μM ATP, 50 nM NHis-tagged 4E-BP1; phosphorylation of 4E-BP1; read-out: IC50. A digest of the protocol: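 mTORC1 (0.2 nM) phosphorylated NHis-tagged 4E-BP1 (50 nM) with 10 μM ATP in 20 mM Hepes pH 7.2, 10 mM MnCl2, for 120 min at ambient temperature. Product was captured on Ni-chelate plates and detected with anti-phospho-4E-BP1 plus HRP secondary antibody by chemiluminescence.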
(In general: In an ELISA, binding on a coated surface is turned into a signal by an enzyme label.)

The target in another assay is PI3Kα (Homo sapiens, UniProt P42336). The experiment in a line: PI3K Biochemical Assays (ATP consumption, luciferase-luciferin chemiluminescence). The following applies: PI3Kα 1.5 nM, ATP 1 μM, PIP2 10 μM; percent of ATP consumed. A digest of the protocol:
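Kinase activity read as percent ATP consumed via luciferase-luciferin chemiluminescence. 1.5 nM enzyme, 1 μM ATP, 10 μM PIP2 in 50 mM Tris pH 7.5, 1 mM EGTA, 10 mM MgCl2, 1 mM DTT, 0.03% CHAPS; ~2 h at ambient temperature, ATP consumption kept to 40-60%.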

PI3Kα, sequence (P42336 whole entry): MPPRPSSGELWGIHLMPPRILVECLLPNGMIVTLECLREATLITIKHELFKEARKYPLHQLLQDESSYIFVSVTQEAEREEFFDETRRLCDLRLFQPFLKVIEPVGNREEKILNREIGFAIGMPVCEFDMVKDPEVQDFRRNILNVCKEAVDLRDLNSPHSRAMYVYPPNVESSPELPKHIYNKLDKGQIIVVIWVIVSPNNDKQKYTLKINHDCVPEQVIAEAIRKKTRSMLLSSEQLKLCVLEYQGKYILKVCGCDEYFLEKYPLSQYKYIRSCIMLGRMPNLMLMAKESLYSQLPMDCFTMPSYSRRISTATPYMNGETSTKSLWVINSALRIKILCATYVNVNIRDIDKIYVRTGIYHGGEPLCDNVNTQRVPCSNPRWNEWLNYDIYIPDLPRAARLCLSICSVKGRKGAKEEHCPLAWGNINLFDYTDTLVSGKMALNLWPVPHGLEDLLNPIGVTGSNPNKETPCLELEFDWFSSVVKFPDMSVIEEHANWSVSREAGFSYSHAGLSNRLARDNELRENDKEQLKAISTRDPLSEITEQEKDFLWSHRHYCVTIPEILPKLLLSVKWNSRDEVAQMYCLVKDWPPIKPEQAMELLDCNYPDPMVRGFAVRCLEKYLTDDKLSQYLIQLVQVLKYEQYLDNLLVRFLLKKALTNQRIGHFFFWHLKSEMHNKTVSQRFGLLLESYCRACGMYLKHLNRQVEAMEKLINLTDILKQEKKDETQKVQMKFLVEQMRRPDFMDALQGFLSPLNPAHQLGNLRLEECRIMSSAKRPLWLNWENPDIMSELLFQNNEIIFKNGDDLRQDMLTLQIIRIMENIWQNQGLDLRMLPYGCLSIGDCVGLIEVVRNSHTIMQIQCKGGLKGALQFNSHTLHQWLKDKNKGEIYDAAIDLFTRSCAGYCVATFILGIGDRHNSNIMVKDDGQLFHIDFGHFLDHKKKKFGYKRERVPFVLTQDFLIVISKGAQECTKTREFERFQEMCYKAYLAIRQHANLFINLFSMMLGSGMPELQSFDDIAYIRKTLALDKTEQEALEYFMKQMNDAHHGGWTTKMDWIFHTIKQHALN
PI3Kα, sequence (P27986 whole entry partner): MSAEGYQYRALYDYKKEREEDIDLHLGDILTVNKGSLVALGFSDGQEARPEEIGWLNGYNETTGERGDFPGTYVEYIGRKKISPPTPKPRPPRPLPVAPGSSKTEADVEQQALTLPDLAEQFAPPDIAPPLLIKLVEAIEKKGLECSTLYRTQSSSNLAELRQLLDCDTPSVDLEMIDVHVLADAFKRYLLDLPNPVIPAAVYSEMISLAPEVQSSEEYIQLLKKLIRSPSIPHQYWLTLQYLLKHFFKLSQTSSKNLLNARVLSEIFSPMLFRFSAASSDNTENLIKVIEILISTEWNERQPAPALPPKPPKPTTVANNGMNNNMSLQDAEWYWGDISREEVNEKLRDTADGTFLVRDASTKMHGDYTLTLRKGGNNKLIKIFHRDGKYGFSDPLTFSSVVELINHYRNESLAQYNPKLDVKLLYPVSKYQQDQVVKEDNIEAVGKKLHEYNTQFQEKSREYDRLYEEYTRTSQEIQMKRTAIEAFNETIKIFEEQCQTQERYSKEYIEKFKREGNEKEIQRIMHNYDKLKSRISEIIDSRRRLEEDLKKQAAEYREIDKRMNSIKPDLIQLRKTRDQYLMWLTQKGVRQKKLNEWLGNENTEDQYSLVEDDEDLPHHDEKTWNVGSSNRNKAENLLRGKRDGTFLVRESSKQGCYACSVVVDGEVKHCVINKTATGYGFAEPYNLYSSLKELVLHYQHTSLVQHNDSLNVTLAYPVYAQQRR

Take `Cc1nc2ccc(-c3ccc4c(c3)CN(C(=O)N3CCCC(O)C3)CCO4)cc2[nH]1` (centres unmarked) [Compound 108, 1-{[7-(2-methyl-1H-benzimidazol-6-yl)-2,3-dihydro-1,4-benzoxazepin-4(5H)-yl]carbonyl}piperidin-3-ol]: the half-inhibitory concentration (IC50) is 250 to 700 nM at mTORC1 (mTOR/GbL/Raptor) and 500 to 1000 nM at PI3Kα.

With `Cc1nc2ccc(-c3ccc4c(c3)CN(C(=O)N(C)[C@H](C)c3ccccc3)CCO4)cc2[nH]1` [Compound 109, N-methyl-7-(2-methyl-1H-benzimidazol-6-yl)-N-[(1R)-1-phenylethyl]-2,3-dihydro-1,4-benzoxazepine-4(5H)-carboxamide], the concentration for half-maximal inhibition (IC50) at mTORC1 (mTOR/GbL/Raptor) was not above 50 nM; at PI3Kα, 75 to 200 nM.

For `Cc1nc2ccc(-c3ccc4c(c3)CN(C(=O)N3CC5CN(c6ccccc6)CC5C3)CCO4)cc2[nH]1` (centres unmarked) [Compound 110, 7-(2-methyl-1H-benzimidazol-6-yl)-4-[(5-phenylhexahydropyrrolo[3,4-c]pyrrol-2(1H)-yl)carbonyl]-2,3,4,5-tetrahydro-1,4-benzoxazepine], the IC50 on mTORC1 (mTOR/GbL/Raptor) was 250 to 700 nM; against PI3Kα, 200 to 500 nM.

As to `Cc1nc2ccc(-c3ccc4c(c3)CN(C(=O)N3CCC(=O)CC3c3ccccc3)CCO4)cc2[nH]1` (centres unmarked) [Compound 111, 1-{[7-(2-methyl-1H-benzimidazol-6-yl)-2,3-dihydro-1,4-benzoxazepin-4(5H)-yl]carbonyl}-2-phenylpiperidin-4-one], the values for the half-maximal inhibitory concentration (IC50) at mTORC1 (mTOR/GbL/Raptor) and against PI3Kα were not above 50 nM and 75 to 200 nM, respectively.

Take `Cc1nc2ccc(-c3ccc4c(c3)CN(C(=O)N3CCc5ccccc5C3)CCO4)cc2[nH]1` [Compound 113, 4-(3,4-dihydroisoquinolin-2(1H)-ylcarbonyl)-7-(2-methyl-1H-benzimidazol-6-yl)-2,3,4,5-tetrahydro-1,4-benzoxazepine]: the results for the half-maximal inhibitory concentration (IC50) on mTORC1 (mTOR/GbL/Raptor) and against PI3Kα were 50 to 250 nM and 500 to 1000 nM, respectively.

As for `Cc1nc2ccc(-c3ccc4c(c3)CN(C(=O)N3CCCCC3c3ccc(F)c(F)c3)CCO4)cc2[nH]1` (centres unmarked) [Compound 114, 4-{[2-(3,4-difluorophenyl)piperidin-1-yl]carbonyl}-7-(2-methyl-1H-benzimidazol-6-yl)-2,3,4,5-tetrahydro-1,4-benzoxazepine], the values for the IC50 at mTORC1 (mTOR/GbL/Raptor) and at PI3Kα were not above 50 nM and not above 75 nM, respectively.

With `Cc1nc2ccc(-c3ccc4c(c3)CN(C(=O)N3CCCCC3c3cc(F)cc(Cl)c3)CCO4)cc2[nH]1` (centres unmarked) [Compound 116, 4-{[2-(3-chloro-5-fluorophenyl)piperidin-1-yl]carbonyl}-7-(2-methyl-1H-benzimidazol-6-yl)-2,3,4,5-tetrahydro-1,4-benzoxazepine], the IC50 at mTORC1 (mTOR/GbL/Raptor) was not above 50 nM; at PI3Kα it was 75 to 200 nM.

`Cc1nc2ccc(-c3ccc4c(c3)CN(C(=O)N3CCCCC3c3ccc(F)c(C)c3)CCO4)cc2[nH]1` (centres unmarked) [Compound 118, 4-{[2-(4-fluoro-3-methylphenyl)piperidin-1-yl]carbonyl}-7-(2-methyl-1H-benzimidazol-6-yl)-2,3,4,5-tetrahydro-1,4-benzoxazepine]: the half-maximal inhibitory concentration (IC50) is not above 50 nM on mTORC1 (mTOR/GbL/Raptor) and 75 to 200 nM at PI3Kα.

Take `Cc1nc2ccc(-c3ccc4c(c3)CN(C(=O)N3CCCCC3c3ccc(C(F)(F)F)cc3)CCO4)cc2[nH]1` (centres unmarked) [Compound 120, 7-(2-methyl-1H-benzimidazol-6-yl)-4-({2-[4-(trifluoromethyl)phenyl]piperidin-1-yl}carbonyl)-2,3,4,5-tetrahydro-1,4-benzoxazepine]: the IC50 at mTORC1 (mTOR/GbL/Raptor) is not above 50 nM; against PI3Kα, 200 to 500 nM.

As for `Cc1nc2ccc(-c3ccc4c(c3)CN(C(=O)N3CCC(=O)CC3c3ccc(F)c(F)c3)CCO4)cc2[nH]1` (centres unmarked) [Compound 121, 2-(3,4-difluorophenyl)-1-{[7-(2-methyl-1H-benzimidazol-6-yl)-2,3-dihydro-1,4-benzoxazepin-4(5H)-yl]carbonyl}piperidin-4-one], the half-inhibitory concentration (IC50) on mTORC1 (mTOR/GbL/Raptor) fell in the range of 50 to 250 nM; against PI3Kα, 75 to 200 nM.

On to `Cc1nc2ccc(-c3ccc4c(c3)CN(C(=O)N3CCCCCC3c3ccccc3)CCO4)cc2[nH]1` (centres unmarked) [Compound 122, 7-(2-methyl-1H-benzimidazol-5-yl)-4-[(2-phenylazepan-1-yl)carbonyl]-2,3,4,5-tetrahydro-1,4-benzoxazepine], for which the results for the IC50 at mTORC1 (mTOR/GbL/Raptor) and on PI3Kα were 250 to 700 nM and 500 to 1000 nM, respectively.

For `Cc1nc2ccc(-c3ccc4c(c3)CN(C(=O)N3CCCCC3c3ccc(C)c(F)c3)CCO4)cc2[nH]1` (centres unmarked) [Compound 123, 4-{[2-(3-fluoro-4-methylphenyl)piperidin-1-yl]carbonyl}-7-(2-methyl-1H-benzimidazol-6-yl)-2,3,4,5-tetrahydro-1,4-benzoxazepine], the IC50 at mTORC1 (mTOR/GbL/Raptor) was not above 50 nM; against PI3Kα, 75 to 200 nM.

For `Cc1nc2ccc(-c3ccc4c(c3)CN(C(=O)N3CCCCC3c3cccc(Cl)c3)CCO4)cc2[nH]1` (centres unmarked) [Compound 124, 4-{[2-(3-chlorophenyl)piperidin-1-yl]carbonyl}-7-(2-methyl-1H-benzimidazol-6-yl)-2,3,4,5-tetrahydro-1,4-benzoxazepine], the concentration for half-maximal inhibition (IC50) on mTORC1 (mTOR/GbL/Raptor) was not above 50 nM; against PI3Kα, 75 to 200 nM.

Take `Cc1nc2ccc(-c3ccc4c(c3)CN(C(=O)N3CCC(=O)CC3c3cccc(F)c3)CCO4)cc2[nH]1` (centres unmarked) [Compound 125, 2-(3-fluorophenyl)-1-{[7-(2-methyl-1H-benzimidazol-6-yl)-2,3-dihydro-1,4-benzoxazepin-4(5H)-yl]carbonyl}piperidin-4-one]: the figures for the IC50 at mTORC1 (mTOR/GbL/Raptor) and at PI3Kα were not above 50 nM and 75 to 200 nM, respectively.

With `Cc1nc2ccc(-c3ccc4c(c3)CN(C(=O)N3CCCCC3c3cccc(C(F)(F)F)c3)CCO4)cc2[nH]1` (centres unmarked) [Compound 127, 7-(2-methyl-1H-benzimidazol-6-yl)-4-({2-[3-(trifluoromethyl)phenyl]piperidin-1-yl}carbonyl)-2,3,4,5-tetrahydro-1,4-benzoxazepine], the IC50 on mTORC1 (mTOR/GbL/Raptor) is 250 to 700 nM; against PI3Kα it was 200 to 500 nM.

With `Cc1nc2ccc(-c3ccc4c(c3)CN(C(=O)N3CCCCC3c3ccc(F)c(Cl)c3)CCO4)cc2[nH]1` (centres unmarked) [Compound 128, 4-{[2-(3-chloro-4-fluorophenyl)piperidin-1-yl]carbonyl}-7-(2-methyl-1H-benzimidazol-6-yl)-2,3,4,5-tetrahydro-1,4-benzoxazepine], the half-maximal inhibitory concentration (IC50) at mTORC1 (mTOR/GbL/Raptor) was not above 50 nM; on PI3Kα, 75 to 200 nM.

For `Cc1nc2ccc(-c3ccc4c(c3)CN(C(=O)N3CCCCC3c3cc(F)c(F)c(F)c3)CCO4)cc2[nH]1` (centres unmarked) [Compound 129, 7-(2-methyl-1H-benzimidazol-6-yl)-4-{[2-(3,4,5-trifluorophenyl)piperidin-1-yl]carbonyl}-2,3,4,5-tetrahydro-1,4-benzoxazepine], the IC50 at mTORC1 (mTOR/GbL/Raptor) is not above 50 nM; against PI3Kα, 75 to 200 nM.

As to `Cc1nc2ccc(-c3ccc4c(c3)CN(C(=O)N3CCCCC3c3cc(F)cc(F)c3)CCO4)cc2[nH]1` (centres unmarked) [Compound 130, 4-{[2-(3,5-difluorophenyl)piperidin-1-yl]carbonyl}-7-(2-methyl-1H-benzimidazol-6-yl)-2,3,4,5-tetrahydro-1,4-benzoxazepine], the figures for the IC50 at mTORC1 (mTOR/GbL/Raptor) and against PI3Kα were not above 50 nM and not above 75 nM, respectively.

For the molecule `Cc1nc2ccc(-c3ccc4c(c3)CN(C(=O)N3CCCCC3c3ccc(N(C)C)cc3)CCO4)cc2[nH]1` (centres unmarked) [Compound 131, N,N-dimethyl-4-(1-{[7-(2-methyl-1H-benzimidazol-6-yl)-2,3-dihydro-1,4-benzoxazepin-4(5H)-yl]carbonyl}piperidin-2-yl)aniline], the 50% inhibitory concentration (IC50) was 700 to 2600 nM on mTORC1 (mTOR/GbL/Raptor) and 1000 to 3000 nM against PI3Kα.

On to `Cc1nc2ccc(-c3ccc4c(c3)CN(C(=O)N3CCC(C)(C(N)=O)CC3)CCO4)cc2[nH]1` [Compound 135, 4-methyl-1-{[7-(2-methyl-1H-benzimidazol-6-yl)-2,3-dihydro-1,4-benzoxazepin-4(5H)-yl]carbonyl}piperidine-4-carboxamide], for which the values for the IC50 on mTORC1 (mTOR/GbL/Raptor) and at PI3Kα were 50 to 250 nM and 1000 to 3000 nM, respectively.

Consider `Cc1nc2ccc(-c3ccc4c(c3)CN(C(=O)N3CCC(=C(F)F)CC3)CCO4)cc2[nH]1` [Compound 137, 4-{[4-(difluoromethylidene)piperidin-1-yl]carbonyl}-7-(2-methyl-1H-benzimidazol-6-yl)-2,3,4,5-tetrahydro-1,4-benzoxazepine], for which the values for the 50% inhibitory concentration (IC50) on mTORC1 (mTOR/GbL/Raptor) and at PI3Kα were 250 to 700 nM and 200 to 500 nM, respectively.

As for `Cc1nc2ccc(-c3ccc4c(c3)CN(C(=O)N3CCC(F)(F)CC3c3ccccc3)CCO4)cc2[nH]1` (centres unmarked) [Compound 138, 4-[(4,4-difluoro-2-phenylpiperidin-1-yl)carbonyl]-7-(2-methyl-1H-benzimidazol-6-yl)-2,3,4,5-tetrahydro-1,4-benzoxazepine], the values for the half-maximal inhibitory concentration (IC50) on mTORC1 (mTOR/GbL/Raptor) and against PI3Kα were 50 to 250 nM and 500 to 1000 nM, respectively.

In the case of `Cc1nc2ccc(-c3ccc4c(c3)CN(C(=O)N3CCC(C(C)(C)O)CC3)CCO4)cc2[nH]1` [Compound 139, 2-(1-{[7-(2-methyl-1H-benzimidazol-6-yl)-2,3-dihydro-1,4-benzoxazepin-4(5H)-yl]carbonyl}piperidin-4-yl)propan-2-ol], the 50% inhibitory concentration (IC50) at mTORC1 (mTOR/GbL/Raptor) was 50 to 250 nM; against PI3Kα it was 1000 to 3000 nM.

Regarding `Cc1nc2ccc(-c3ccc4c(c3)CN(C(=O)N3CCC(O)(c5ccc(F)cc5)CC3)CCO4)cc2[nH]1` [Compound 142, 4-(4-fluorophenyl)-1-{[7-(2-methyl-1H-benzimidazol-6-yl)-2,3-dihydro-1,4-benzoxazepin-4(5H)-yl]carbonyl}piperidin-4-ol], the figures for the concentration for half-maximal inhibition (IC50) on mTORC1 (mTOR/GbL/Raptor) and against PI3Kα were not above 50 nM and 200 to 500 nM, respectively.

Regarding `Cc1nc2ccc(-c3ccc4c(c3)CN(C(=O)N3C5CCC3c3ccccc35)CCO4)cc2[nH]1` [Compound 143, 9-{[7-(2-methyl-1H-benzimidazol-6-yl)-2,3-dihydro-1,4-benzoxazepin-4(5H)-yl]carbonyl}-1,2,3,4-tetrahydro-1,4-epiminonaphthalene], the figures for the 50% inhibitory concentration (IC50) at mTORC1 (mTOR/GbL/Raptor) and against PI3Kα were 50 to 250 nM and 200 to 500 nM, respectively.

The IC50 is the concentration that gives 50% inhibition.
